Test results taken from US6686361B2, “R-6-hydroxy-buspirone” (Bristol-Myers Squibb Company, priority 2001, dated 2004).

Tests used:
[1] = tested on: rat pup ultrasonic vocalizations; test: Rat pup isolation-induced ultrasonic vocalization test; format: in vivo; conditions: rat pups; for anxiolytic activity (ultrasonic vocalizations): 0.3 and 1 mg/kg s.c.
Protocol: Harlan Sprague-Dawley rat pups (male and female) were housed in polycarbonate cages with the dam until 9-11 days old. Thirty minutes before testing, pups were removed from the dam, placed into a new cage with a small amount of home bedding and brought into the lab and placed under a light to maintain body temperature at 37° C. Pups were then weighed, sexed, marked and returned to the litter group until behavioral assessment. Testing took place in a Plexiglas recording chamber that contained a metal plate maintained at (18-20° C.) with a 5×5 cm grid drawn on the plate. A microphone was suspended 10 cm above the plate to record ultrasonic vocalizations. Ultrasonic calls were recorded using the Noldus UltraVox system providing online analysis of the frequency and duration of calls. The number of grid cells entered by the pup was also collected by visual scoring. […] Immediately following the collection of the baseline measures, pups were injected with vehicle or drug subcutaneously at the nape of the neck and returned to its littermates. Thirty minutes later, pups were retested on each of the dependent measures (vocalization and grid cell crossings) to assess drug effects. Unless otherwise specified, each pup was used only once. Baseline differences and percent change from baseline for the frequency of ultrasonic vocalizations and grid cell crossings were analyzed using a one-way ANOVA. Bonferroni/Dunn post hoc comparisons were performed to assess the acute drug effects with vehicle control. Log-probit analysis was used to estimate the dose (milligrams per kilogram) of each agonist predicted to inhibit isolation-induced ultrasonic vocalizations by 50% (ID50). All comparison were made with an experimental type I error rate (α) set at 0.05.
Doses for each drug were administered in an irregular order across several litters. R-6-hydroxy-buspirone and racemic 6-hydroxy-buspirone were dissolved in physiological saline (0.9% NaCl; vehicle). All injections were administered subcutaneously in a volume of 10 ml/kg. Doses of the drug refer to weight of the salt.

[2] = tested on: rat pup ultrasonic vocalizations; conditions: functional testing, background; cited from earlier work
human 5-HT1A receptor [3] = target: T1, human 5-HT1A receptor (Homo sapiens, UniProt P08908); conditions: preclinical studies, background; cited from earlier work
T1 construct: expressed in transfected cells; host or cells: HEK293
T1 sequence (P08908 1-422): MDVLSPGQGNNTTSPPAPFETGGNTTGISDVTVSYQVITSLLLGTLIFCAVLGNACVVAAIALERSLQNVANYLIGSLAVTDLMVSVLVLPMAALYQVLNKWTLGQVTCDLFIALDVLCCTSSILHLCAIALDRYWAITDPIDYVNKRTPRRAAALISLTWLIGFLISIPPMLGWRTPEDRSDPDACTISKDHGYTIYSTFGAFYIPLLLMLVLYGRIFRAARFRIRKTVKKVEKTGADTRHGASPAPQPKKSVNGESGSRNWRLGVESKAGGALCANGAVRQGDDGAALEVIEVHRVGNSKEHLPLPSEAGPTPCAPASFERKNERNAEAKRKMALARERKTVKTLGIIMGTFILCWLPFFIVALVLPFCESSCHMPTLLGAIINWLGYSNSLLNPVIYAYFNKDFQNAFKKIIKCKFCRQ

D2(h) = D2(h) (Homo sapiens, UniProt P14416); test: Receptor binding, D2(h)
Sequence of D2(h) (P14416 whole entry): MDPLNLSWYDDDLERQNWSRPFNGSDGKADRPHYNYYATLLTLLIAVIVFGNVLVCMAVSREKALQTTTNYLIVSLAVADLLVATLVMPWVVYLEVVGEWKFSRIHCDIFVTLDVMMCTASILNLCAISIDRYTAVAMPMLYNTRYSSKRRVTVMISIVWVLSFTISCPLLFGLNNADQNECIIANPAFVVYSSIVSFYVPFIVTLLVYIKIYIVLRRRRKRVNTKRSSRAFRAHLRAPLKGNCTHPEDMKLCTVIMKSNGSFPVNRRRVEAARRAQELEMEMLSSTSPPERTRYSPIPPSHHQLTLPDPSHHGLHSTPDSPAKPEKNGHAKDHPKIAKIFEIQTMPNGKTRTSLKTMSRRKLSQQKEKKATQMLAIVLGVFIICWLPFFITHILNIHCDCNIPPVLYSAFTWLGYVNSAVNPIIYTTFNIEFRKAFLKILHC

human 5-HT1A receptor [4] = target: T1, human 5-HT1A receptor; test: 5-HT1A receptor binding assay; conditions: human 5-HT1A receptor expressed in HEK293 cells, 3H-8-OH-DPAT
Protocol: Membranes are prepared for binding using the human 5-HT1 A receptor expressed in HEK293 cells. Cells are collected and ruptured using a dounce homogenizer. The cells are spun at 18000×g for 10 minutes and the pellet is resuspended in assay buffer, frozen in liquid nitrogen and kept at −80° C. until the day of the assay.
A total of 30 ug protein is used per well. The assay is carried out in 96-deep-well plates. The assay buffer is 50 mM HEPES containing 2.5 mM MgCl2 and 2 mM EGTA. The membrane preparation is incubated at 25° C. for 60 minutes with 0.1 nM to 1000 nM test compound and 1 nM 3H-8-OH-DPAT. […] serotonin serves as blocking agent to determine non-specific binding. The reaction is terminated by the addition of 1 ml of ice cold 50 mM HEPES buffer and rapid filtration through a Brandel Cell Harvester using Whatman GF/B filters. The filter pads are counted in an LKB Trilux liquid scintillation counter. IC50 values are determined using non-linear regression by Excel-fit.

Row | Compound | anxiolytic activity (ultrasonic vocalizations) [1] | animal movement, measured by crossing grid boundary lines ([1]; compared to animals dosed with the single enantiomer) | anxiolytic response in the rat pup ultrasonic vocalization test [2] | affinity for the human 5-HT1A receptor (human 5-HT1A receptor [3]) | Ki (D2(h)) [nM] | Ki (human 5-HT1A receptor [4]) [nM]
1 | O=C1CC2(CCCC2)C(O)C(=O)N1CCCCN1CCN(c2ncccn2)CC1 (racemic) [6-hydroxy-buspirone] | Statistically significant anxiolytic activity | appeared to be reduced | dose-dependent anxiolytic response | strong affinity | – | –
2 | O=C1CC2(CCCC2)[C@@H](O)C(=O)N1CCCCN1CCN(c2ncccn2)CC1 [R-6-hydroxy-buspirone] | Statistically significant anxiolytic activity | – | – | – | 2870 | 14
3 | O=C1CC2(CCCC2)[C@H](O)C(=O)N1CCCCN1CCN(c2ncccn2)CC1 [S-6-hydroxy-buspirone] | – | – | – | – | 1300 | 24
